Results taken from patent publication US20200397795A1, “PROPHYLACTIC TREATMENT OF VENOUS THROMBOEMBOLISM” (JANSSEN PHARMACEUTICALS, INC., priority 2019, published 2020).

Tested on: venous thromboembolism (VTE) in patients hospitalized for acute medical illness
Assay: MAGELLAN (Study 1): efficacy of oral rivaroxaban 10 mg OD 35 days vs sc enoxaparin 40 mg OD 10 days then placebo
Format: in vivo
Experimental: The objective of Study 1 (MAGELLAN or MAGELLAN Study) was to compare efficacy and safety of venous thromboembolism (VTE) prophylaxis with oral rivaroxaban 10 mg once daily administered for 35±4 days (hereafter referred to as 35 days or Day 35) to subcutaneous enoxaparin 40 mg once daily (OD) administered for 10±4 days (hereafter referred to as 10 days or Day 10) in men and women aged 40 years or above, who have been hospitalized for a medical illness.
Diagnosis and main criteria for inclusion in Study 1 was men and women 40 years or above and at risk for VTE being hospitalized for acute medical illness conditions, including: heart failure (New York Heart Association [NYHA] class III or IV); active cancer (e.g., admitted for chemotherapy or for the treatment of a complication of active cancer); acute ischemic stroke; acute infectious and inflammatory diseases, including acute rheumatic diseases; and acute respiratory insufficiency. Also at least one additional risk factor for VTE, including: severe varicosis (varicosities); chronic venous insufficiency; history of cancer; history of deep vein thrombosis (DVT) or pulmonary embolism (PE); history of heart failure (NYHA class III or IV); thrombophilia (hereditary or acquired); recent major surgery (6-12 weeks); recent serious trauma (6-12 weeks); hormone replacement therapy; advanced age greater than or equal to 75 years; morbid obesity (body mass index (BMI) 35 kg/m^2 or higher); and acute infectious disease contributing to hospitalization.
The study was conducted in a prospective, randomized, double-blind, double dummy, active comparator-controlled, multicenter and multinational design. There were 8101 subjects were randomized at 556 study centers in 52 countries to one of the two treatment groups. Of the 8101 randomized subjects, 4050 were randomized to active rivaroxaban and 4051 were randomized to active enoxaparin.
Primary Endpoints: The primary efficacy variable was a composite of the number of events of: asymptomatic proximal DVT in lower extremity detected by mandatory bilateral lower extremity venous ultrasonography; symptomatic DVT in lower extremity, proximal or distal; symptomatic, non-fatal PE; and VTE-related death defined as either a well-documented fatal PE, or sudden death with no other plausible explanation. The two primary efficacy endpoints were (i) test of superiority at Day 35 (Days 29-41, inclusive) and (ii) test of non-inferiority at Day 10 (Days 6-15, inclusive).
Secondary Endpoints: The first major secondary efficacy endpoint was defined as a composite of the test of superiority at Day 35 with component of VTE-related death substituted by all-cause mortality, up to Day 35. The second major efficacy secondary efficacy endpoint was the test for superiority at Day 10 using the same composite endpoint as the Day 10 non-inferiority test.
For both primary efficacy endpoints, the relative risk ratio (rivaroxaban/enoxaparin) with respect to the incidences of the primary efficacy endpoint was estimated based on a stratified estimator using Mantel-Haenszel weights (based on sample sizes by geographic region). The corresponding asymptotic 2-sided 95% confidence interval based on the approximation to the normal distribution was determined. Sensitivity analyses were performed for the primary efficacy endpoints.
The primary efficacy variable was a composite of the number of events of (1) asymptomatic proximal DVT in lower extremity detected by mandatory bilateral lower extremity venous ultrasonography; (2) symptomatic DVT in lower extremity, proximal or distal; (3) symptomatic, nonfatal PE; and (4) VTE-related death. […]

[1] = Day 10 + 5, PP Day 10 plus major and clinically relevant bleeds
[2] = Day 10 + 5, per protocol Day 10 analysis set
[3] = Day 10 + 5 up to Day 35 + 6, mITT (Day 10 to Day 35) analysis set
[4] = Day 10 + 5 up to Day 35 + 6, mITT (Day 10 to Day 35) analysis set, listed as enoxaparin
[5] = Day 35 + 6, mITT Day 35 analysis set
[6] = Day 35 + 6, mITT Day 35 analysis set, listed as enoxaparin
[7] = Day 35 + 6, mITT Day 35 plus major and clinically relevant bleeds

Enoxaparin
Major vascular events (CV death, acute myocardial infarction, or acute ischemic stroke), incidence (Day 10): 1.0%
Symptomatic VTE excluding VTE-related death, incidence (Day 10): 0.3%
Symptomatic VTE including death, incidence (Day 10): 0.6%
Net clinical benefit component: asymptomatic lower proximal deep vein thrombosis [1]: 71 (2.4%)
Net clinical benefit component: clinically relevant non-major bleeding [1]: 32 (1.1%)
Net clinical benefit component: death (pulmonary embolism) [1]: 6 (0.2%)
Net clinical benefit component: major bleeding [1]: 4 (0.1%)
Net clinical benefit component: symptomatic deep vein thrombosis in lower extremity [1]: 6 (0.2%)
Net clinical benefit component: symptomatic non-fatal pulmonary embolism [1]: 2 (<0.1%)
Net clinical benefit component: venous thromboembolism related death [1]: 6 (0.2%)
Net clinical benefit, any event, incidence [1]: 118 (3.9%)
Net clinical benefit, any event, incidence (Day 10 + 5, PP Day 10 plus major and clinically relevant bleeds, listed as enoxaparin): 3.9%
Asymptomatic proximal deep vein thrombosis in lower extremity, incidence [2]: 71 (2.4%)
Death (pulmonary embolism cannot be excluded), incidence [2]: 6 (0.2%)
Primary efficacy composite, any event, incidence [2]: 82 (2.7%)
Symptomatic deep vein thrombosis in lower extremity, incidence [2]: 6 (0.2%)
Symptomatic non-fatal pulmonary embolism, incidence [2]: 2 (<0.1%)
Venous thromboembolism related death, incidence [2]: 6 (0.2%)
Primary efficacy composite, any event, incidence (Day 10 + 5, per protocol Day 10 analysis set, listed as enoxaparin): 2.7%
Asymptomatic proximal deep vein thrombosis in lower extremity, incidence [3]: 89 (2.9%)
Death (pulmonary embolism cannot be excluded), incidence [3]: 15 (0.5%)
Death (pulmonary embolism), incidence [3]: 0%
Symptomatic deep vein thrombosis in lower extremity, incidence [3]: 7 (0.2%)
Symptomatic non-fatal pulmonary embolism, incidence [3]: 10 (0.3%)
Venous thromboembolism related death, incidence [3]: 15 (0.5%)
Primary efficacy composite, any event, incidence (Day 10 + 5 up to Day 35 + 6, mITT (Day 10 to Day 35) analysis set, rivaroxaban-placebo phase): 114 (3.8%)
Primary efficacy composite, any event, incidence (Day 10 + 5 up to Day 35 + 6, mITT (Day 10 to Day 35) analysis set, rivaroxaban-placebo phase, listed as enoxaparin): 3.8%
Asymptomatic proximal deep vein thrombosis in lower extremity, incidence [4]: 2.9%
Venous thromboembolism related death, incidence [4]: 0.5%
Major vascular events, incidence (Day 35): 1.6%
Symptomatic VTE excluding VTE-related death, incidence (Day 35): 0.7%
Symptomatic VTE including death, incidence (Day 35): 1.4%
Asymptomatic proximal deep vein thrombosis in lower extremity, incidence [5]: 133 (4.4%)
Death (pulmonary embolism cannot be excluded), incidence [5]: 29 (0.9%)
Death (pulmonary embolism), incidence [5]: 1 (<0.1%)
Primary efficacy composite, any event, incidence [5]: 175 (5.7%)
Symptomatic deep vein thrombosis in lower extremity, incidence [5]: 15 (0.5%)
Symptomatic non-fatal pulmonary embolism, incidence [5]: 14 (0.5%)
Venous thromboembolism related death, incidence [5]: 30 (1.0%)
Asymptomatic proximal deep vein thrombosis in lower extremity, incidence [6]: 4.4%
Primary efficacy composite, any event, incidence [6]: 5.7%
Venous thromboembolism related death, incidence [6]: 1.0%
Net clinical benefit component: asymptomatic lower proximal deep vein thrombosis [7]: 133 (4.3%)
Net clinical benefit component: clinically relevant non-major bleeding [7]: 52 (1.7%)
Net clinical benefit component: death (pulmonary embolism cannot be excluded) [7]: 29 (0.9%)
Net clinical benefit component: death (pulmonary embolism) [7]: 1 (<0.1%)
Net clinical benefit component: major bleeding [7]: 15 (0.5%)
Net clinical benefit component: symptomatic deep vein thrombosis in lower extremity [7]: 15 (0.5%)
Net clinical benefit component: symptomatic non-fatal pulmonary embolism [7]: 14 (0.5%)
Net clinical benefit component: venous thromboembolism related death [7]: 30 (1.0%)
Net clinical benefit, any event, incidence [7]: 240 (7.8%)
Net clinical benefit, any event, incidence (Day 35 + 6, mITT Day 35 plus major and clinically relevant bleeds, listed as enoxaparin): 7.8%
Composite endpoint including all-cause mortality, incidence (Day 35, mITT Day 35 expanded): 9.2%
All-cause mortality, incidence (Day 90): 6.2%
Major vascular events, incidence (Day 90): 2.8%
Symptomatic VTE excluding VTE-related death, incidence (Day 90): 0.9%
Symptomatic VTE including death, incidence (Day 90): 1.9%
